Experimental data from PubChem BioAssay AID330 (DTP/NCI, 2004).
“And” between values parts separate entries of the source, which are not always exact repeats. Identical values can stand only once. Inconclusive results and toxic doses are left out. Rule for the calls: active = survival T/C of 150% or more; inactive = T/C below 125% in these data.

Test system: P388 leukemia ip, CD2F1 mice, survival T/C
Experiment: NCI In Vivo Anticancer Drug Screen. Data for tumor model P388 Leukemia (intraperitoneal) in CD2F1 (CDF1) mice
Details: endpoint: median survival time, higher = longer survival
How it was run: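 Mice carrying the transplanted tumor received test compound or vehicle. Survival was recorded in each group, and the value is the treated-group measurement divided by that of the vehicle-treated control group.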

Measured: T/C

CC[C@]1(O)C[C@H]2CN(CCc3c([nH]c4ccccc34)[C@@](C(=O)OC)(c3cc4c(cc3OC)N(C=O)[C@H]3[C@@](O)(C(=O)OC)[C@H](OC(C)=O)[C@]5(CC)C=CCN6CC[C@]43[C@@H]65)C2)C1
inactive: dose: 0.08 mg/kg/injection, schedule: Q01DX009 (ip), vehicle: water 115 % of control | dose: 0.18 mg/kg/injection, schedule: Q01DX005 (ip), vehicle: saline 110 % of control and 123 % of control | dose: 0.22 mg/kg/injection, schedule: Q01DX009 (ip), vehicle: saline 114 % of control | dose: 0.22 mg/kg/injection, schedule: Q01DX009 (ip), vehicle: water 113 % of control | dose: 0.25 mg/kg/injection, schedule: Q01DX001 (ip), vehicle: saline with Tween-80 115 % of control | dose: 0.25 mg/kg/injection, schedule: Q01DX001 (iv), vehicle: saline 122 % of control | dose: 0.25 mg/kg/injection, schedule: Q04DX003 (iv), vehicle: saline 120 % of control | dose: 0.3 mg/kg/injection, schedule: Q01DX005 (ip), vehicle: saline 112 % of control | dose: 0.33 mg/kg/injection, schedule: Q01DX009 (ip), vehicle: saline 113 % of control | dose: 0.36 mg/kg/injection, schedule: Q04DX003 (iv), vehicle: saline 119 % of control and 123 % of control | dose: 0.37 mg/kg/injection, schedule: Q04DX002 (ip), vehicle: saline 117 % of control | dose: 0.4 mg/kg/injection, schedule: Q04DX003 (ip), vehicle: saline 113 % of control | dose: 0.5 mg/kg/injection, schedule: Q04DX003 (oral), vehicle: water 100 % of control | dose: 1.0 mg/kg/injection, schedule: Q04DX003 (oral), vehicle: water 106 % of control | dose: 2.0 mg/kg/injection, schedule: Q04DX003 (oral), vehicle: water 102 % of control | dose: 2.7 mg/kg/injection, schedule: Q04DX003 (iv), vehicle: saline 100 % of control | dose: 3.0 mg/kg/injection, schedule: Q04DX002 (ip), vehicle: saline 99 % of control | dose: 4.0 mg/kg/injection, schedule: Q01DX001 (iv), vehicle: saline 121 % of control | dose: 4.0 mg/kg/injection, schedule: Q04DX003 (oral), vehicle: water 110 % of control | dose: 4.5 mg/kg/injection, schedule: Q01DX001 (ip), vehicle: saline 104 % of control
active: dose: 0.06 mg/kg/injection, schedule: Q01DX010 (ip), vehicle: saline 168 % of control | dose: 0.08 mg/kg/injection, schedule: Q01DX009 (ip), vehicle: saline 172 % of control | dose: 0.12 mg/kg/injection, schedule: Q01DX009 (ip), vehicle: water 166 % of control | dose: 0.12 mg/kg/injection, schedule: Q04DX003 (ip), vehicle: saline 163 % of control | dose: 0.13 mg/kg/injection, schedule: Q01DX005 (ip), vehicle: saline 161 % of control and 168 % of control | dose: 0.13 mg/kg/injection, schedule: Q01DX010 (ip), vehicle: saline 181 % of control | dose: 0.15 mg/kg/injection, schedule: Q01DX009 (ip), vehicle: saline 190 % of control | dose: 0.2 mg/kg/injection, schedule: Q01DX009 (ip), vehicle: saline 169 % of control | dose: 0.2 mg/kg/injection, schedule: Q04DX003 (ip), vehicle: water 196 % of control | dose: 0.25 mg/kg/injection, schedule: Q01DX005 (ip), vehicle: saline 180 % of control and 184 % of control | dose: 0.25 mg/kg/injection, schedule: Q01DX010 (ip), vehicle: saline 177 % of control | dose: 0.3 mg/kg/injection, schedule: Q04DX002 (ip), vehicle: saline 150 % of control | dose: 0.36 mg/kg/injection, schedule: Q01DX009 (ip), vehicle: water 150 % of control | dose: 0.36 mg/kg/injection, schedule: Q04DX003 (ip), vehicle: saline 167 % of control and 169 % of control and 174 % of control | dose: 0.39 mg/kg/injection, schedule: Q04DX002 (ip), vehicle: saline 154 % of control and 164 % of control | dose: 0.4 mg/kg/injection, schedule: Q01DX005 (ip), vehicle: saline 171 % of control | dose: 0.43 mg/kg/injection, schedule: Q04DX002 (ip), vehicle: saline 153 % of control and 176 % of control | dose: 0.44 mg/kg/injection, schedule: Q04DX002 (ip), vehicle: saline 162 % of control | dose: 0.5 mg/kg/injection, schedule: Q04DX004 (ip), vehicle: saline 169 % of control | dose: 0.53 mg/kg/injection, schedule: Q04DX003 (ip), vehicle: saline 179 % of control and 182 % of control | dose: 0.6 mg/kg/injection, schedule: Q01DX009 (ip), vehicle: saline 200 % of control | dose: 0.6 mg/kg/injection, schedule: Q04DX003 (ip), vehicle: saline 198 % of control | dose: 0.65 mg/kg/injection, schedule: Q04DX002 (ip), vehicle: saline 161 % of control and 168 % of control | dose: 0.67 mg/kg/injection, schedule: Q04DX002 (ip), vehicle: saline 174 % of control | dose: 0.72 mg/kg/injection, schedule: Q04DX002 (ip), vehicle: saline 158 % of control and 192 % of control | dose: 0.8 mg/kg/injection, schedule: Q01DX005 (ip), vehicle: saline 186 % of control | dose: 0.8 mg/kg/injection, schedule: Q04DX003 (ip), vehicle: water 191 % of control | dose: 0.8 mg/kg/injection, schedule: Q04DX003 (iv), vehicle: saline 161 % of control and 168 % of control | dose: 1.0 mg/kg/injection, schedule: Q01DX003 (ip), vehicle: saline 163 % of control | dose: 1.0 mg/kg/injection, schedule: Q04DX002 (ip), vehicle: saline 184 % of control | dose: 1.0 mg/kg/injection, schedule: Q04DX003 (iv), vehicle: saline 182 % of control | dose: 1.08 mg/kg/injection, schedule: Q04DX002 (ip), vehicle: saline 167 % of control and 177 % of control | dose: 1.2 mg/kg/injection, schedule: Q04DX002 (ip), vehicle: saline 169 % of control and 179 % of control | dose: 1.2 mg/kg/injection, schedule: Q04DX003 (iv), vehicle: saline 173 % of control and 177 % of control | dose: 1.3 mg/kg/injection, schedule: Q01DX001 (ip), vehicle: saline 156 % of control | dose: 1.5 mg/kg/injection, schedule: Q04DX002 (ip), vehicle: saline 161 % of control | dose: 1.8 mg/kg/injection, schedule: Q04DX002 (ip), vehicle: saline 191 % of control and 200 % of control | dose: 1.8 mg/kg/injection, schedule: Q04DX003 (iv), vehicle: saline 167 % of control and 182 % of control | dose: 2.0 mg/kg/injection, schedule: Q01DX001 (ip), vehicle: Klucel (hydroxypropylcellulose) (HPC) 155 % of control and 162 % of control | dose: 2.0 mg/kg/injection, schedule: Q01DX001 (ip), vehicle: saline with Tween-80 157 % of control | dose: 2.0 mg/kg/injection, schedule: Q01DX001 (iv), vehicle: saline 154 % of control | dose: 2.0 mg/kg/injection, schedule: Q04DX002 (ip), vehicle: saline 182 % of control | dose: 2.7 mg/kg/injection, schedule: Q04DX003 (ip), vehicle: saline 179 % of control | dose: 3.0 mg/kg/injection, schedule: Q01DX001 (ip), vehicle: saline 170 % of control and 192 % of control | dose: 4.0 mg/kg/injection, schedule: Q01DX001 (ip), vehicle: Klucel (hydroxypropylcellulose) (HPC) 167 % of control and 174 % of control | dose: 4.0 mg/kg/injection, schedule: Q01DX001 (ip), vehicle: saline with Tween-80 168 % of control | dose: 8.0 mg/kg/injection, schedule: Q01DX001 (ip), vehicle: Klucel (hydroxypropylcellulose) (HPC) 194 % of control

COC(=O)N(c1ccccc1)c1ccccn1
inactive: dose: 60.0 mg/kg/injection, schedule: Q01DX005 (ip), vehicle: saline with Tween-80 106 % of control | dose: 120.0 mg/kg/injection, schedule: Q01DX005 (ip), vehicle: saline with Tween-80 97 % of control | dose: 240.0 mg/kg/injection, schedule: Q01DX005 (ip), vehicle: saline with Tween-80 100 % of control

CC(C)NC(=O)OCc1c(COC(=O)NC(C)C)c(-c2ccc(F)cc2F)n2c1CCC2
active: dose: 3.13 mg/kg/injection, schedule: Q01DX009 (ip), vehicle: distilled water + Tween-80 168 % of control | dose: 6.25 mg/kg/injection, schedule: Q01DX009 (ip), vehicle: distilled water + Tween-80 158 % of control and 162 % of control | dose: 12.5 mg/kg/injection, schedule: Q01DX009 (ip), vehicle: distilled water + Tween-80 174 % of control and 180 % of control
inactive: dose: 25.0 mg/kg/injection, schedule: Q01DX009 (ip), vehicle: distilled water + Tween-80 99 % of control
